Results reported in the NIST ThermoML archive (doi:10.1016/j.fluid.2010.03.010).
± gives the expanded uncertainty stated by the source.

Assay: molar heat capacity at constant pressure
Settings: 101.33 kPa, Liquid, Differential Scanning Calorimetry

molar heat capacity at constant pressure (308.16 K) | molar heat capacity at constant pressure (313.16 K) | molar heat capacity at constant pressure (318.16 K) | molar heat capacity at constant pressure (323.16 K) | molar heat capacity at constant pressure (328.22 K) | molar heat capacity at constant pressure (333.22 K) | molar heat capacity at constant pressure (338.19 K) | molar heat capacity at constant pressure (343.18 K) | molar heat capacity at constant pressure (348.25 K) | molar heat capacity at constant pressure (353.18 K) | molar heat capacity at constant pressure (358.25 K) | molar heat capacity at constant pressure (363.18 K) | Structure (SMILES)
381.78 ± 11 J/K/mol | 384.86 ± 12 J/K/mol | 382.81 ± 11 J/K/mol | 386.92 ± 12 J/K/mol | 386.92 ± 12 J/K/mol | 388.97 ± 12 J/K/mol | 391.02 ± 12 J/K/mol | 392.05 ± 12 J/K/mol | 394.1 ± 12 J/K/mol | 395.13 ± 12 J/K/mol | 396.15 ± 12 J/K/mol | 399.23 ± 12 J/K/mol | CCCCn1cc[n+](C)c1.N#CN=C=[N-] [1-butyl-3-methylimidazolium dicyanamide]
393.42 ± 12 J/K/mol | 396.97 ± 12 J/K/mol | 399.33 ± 12 J/K/mol | 402.06 ± 12 J/K/mol | 405.24 ± 12 J/K/mol | 406.42 ± 12 J/K/mol | 408.78 ± 12 J/K/mol | 411.14 ± 12 J/K/mol | 414.69 ± 12 J/K/mol | 415.87 ± 12 J/K/mol | 418.23 ± 13 J/K/mol | 420.6 ± 13 J/K/mol | CCOS(=O)(=O)[O-].CCn1cc[n+](C)c1 [1-ethyl-3-methylimidazolium ethyl sulfate]

Structure (SMILES) | molar heat capacity at constant pressure (308.16 K) | molar heat capacity at constant pressure (313.16 K) | molar heat capacity at constant pressure (318.16 K) | molar heat capacity at constant pressure (323.16 K) | molar heat capacity at constant pressure (328.22 K) | molar heat capacity at constant pressure (333.22 K) | molar heat capacity at constant pressure (338.19 K) | molar heat capacity at constant pressure (343.18 K) | molar heat capacity at constant pressure (348.25 K) | molar heat capacity at constant pressure (353.18 K) | molar heat capacity at constant pressure (358.25 K) | molar heat capacity at constant pressure (363.18 K)
CCCC[n+]1ccn(C)c1.O=S(=O)([N-]S(=O)(=O)C(F)(F)F)C(F)(F)F | 573.13 ± 17 J/K/mol | 575.92 ± 17 J/K/mol | 577.32 ± 17 J/K/mol | 581.51 ± 17 J/K/mol | 584.31 ± 18 J/K/mol | 588.5 ± 18 J/K/mol | 588.5 ± 18 J/K/mol | 592.7 ± 18 J/K/mol | 595.49 ± 18 J/K/mol | 596.89 ± 18 J/K/mol | 599.68 ± 18 J/K/mol | 602.48 ± 18 J/K/mol
